From ChEMBL document CHEMBL1201862, “PubChem BioAssay data set” (2004)
Activity calls are given as the source filed them.

Assays:
Genome polyprotein = Genome polyprotein (dengue virus type 2, UniProt P29990); assay: flavivirus cap methylation enzyme inhibition – biochemical, confirmation dose response, primary screen (AID 588689); assay type: functional
[1] = target: Glutathione-S-transferase (Schistosoma japonicum, UniProt Q26513); assay: GST-antibody interaction or FRET quenching – biochemical, TR-FRET, artefact control for Vif-APOBEC3G degradation inhibitor project, dose response (AID 1117362); assay type: functional
Sequence of Glutathione-S-transferase (Q26513 whole entry, the tested form may be a part): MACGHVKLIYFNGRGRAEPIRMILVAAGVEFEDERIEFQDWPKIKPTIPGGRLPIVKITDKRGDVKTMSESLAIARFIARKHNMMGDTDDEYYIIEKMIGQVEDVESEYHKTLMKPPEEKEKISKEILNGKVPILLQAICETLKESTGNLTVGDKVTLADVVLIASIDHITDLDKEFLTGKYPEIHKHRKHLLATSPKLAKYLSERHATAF

[2] = viability loss in CEM21 cells – cell-based, CellTiter-Glo luminescence, cherry-picked, cytotoxicity control for viral fusion inhibitor project, dose response (AID 652042); assay type: functional;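 also: potency for signal decrease meaning cytotoxicity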
[3] = off-target signal loss in HeLa-CEM21 co-culture – HeLa F-luc CTL cells, cherry-picked, counter-screen for HIV-1 Env fusion inhibitor project, dose response (AID 652040); assay type: functional, cell-based;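 also: potency for signal decrease marking cytotoxic or nonspecific inhibition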
HEK293 [4] = assay: cells; details: Homo sapiens
[5] = blockers of HIV-1 ZM109 envelope-driven cell-cell fusion – HeLa effector, CEM target cells, luciferase, cherry-pick, dose response (AID 652058); assay type: functional, cell-based;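 also: luciferase signal from HIV-1 Env mediated cell-cell fusion of effector and target cells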
[6] = toxicity to human HepG2 hepatoma cells – cell-based, plate reader, dry powder samples, cytotoxicity control, dose response (AID 1159569); assay type: functional;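 also: inhibitor potency with signal falling toward the positive control level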
[7] = blockers of HIV-1 envelope-mediated cell-cell fusion – cherry-pick, dose response (AID 652057); assay type: functional, cell-based
[8] = growth inhibition of PfATP4-mutant resistant parasites – NITD609-resistant line, SYBR Green, dry powder, dose response (AID 1159571); assay type: functional, cell-based;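 also: parasites synchronized at ring stage by sorbitol before testing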
[9] = Dd2 malaria parasite growth inhibition potency – SYBR Green, dry powder samples, dose response (AID 1159566); assay type: functional, cell-based;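 also: potency for growth inhibition with lower SYBR green DNA signal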
[10] = P. falciparum Dd2 growth inhibitors, dose response, SYBR Green, cherry-picked samples (AID 1159567); assay type: functional, cell-based
[11] = HIV-1 AD8 envelope cell-cell fusion blockers – cherry-pick, dose response (AID 652062); assay type: functional, cell-based;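 also: luciferase signal from cell-cell fusion driven by HIV-1 clade B AD8 Env; potency is for inhibitors of fusion seen as a drop in luminescence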
HEK293 [12] = assay: cells; details: Homo sapiens; remark: listed apart in the source
[13] = growth inhibition of yeast DHODH-expressing 3D7 parasites – SYBR Green, dry powder samples, dose response (AID 1159570); assay type: functional, cell-based;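 also: parasite growth measured after 72 hours of compound exposure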
Caspase-6 = target: T1, Caspase-6 (Homo sapiens, UniProt P55212); assay: inhibition of CASP6 peptide cleavage – biochemical, VEID-R110 fluorescence, cherry-pick, dose response (AID 720632)
T1 sequence (P55212 whole entry): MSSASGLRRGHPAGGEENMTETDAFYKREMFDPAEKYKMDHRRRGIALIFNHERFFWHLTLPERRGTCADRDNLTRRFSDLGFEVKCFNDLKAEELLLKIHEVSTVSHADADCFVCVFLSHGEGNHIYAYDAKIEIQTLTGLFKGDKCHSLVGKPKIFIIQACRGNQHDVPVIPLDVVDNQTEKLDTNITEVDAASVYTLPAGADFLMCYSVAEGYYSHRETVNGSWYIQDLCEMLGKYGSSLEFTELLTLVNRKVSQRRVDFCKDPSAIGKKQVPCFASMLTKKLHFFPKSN

[14] = target: T2, Low molecular weight phosphotyrosine protein phosphatase (Homo sapiens, UniProt P24666); assay type: functional; details: read-out: IC50_Mean;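 also: Dose-response confirmation assay measuring inhibition of LMPTP enzyme activity by fluorescence intensity read-out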
T2 sequence (P24666 whole entry): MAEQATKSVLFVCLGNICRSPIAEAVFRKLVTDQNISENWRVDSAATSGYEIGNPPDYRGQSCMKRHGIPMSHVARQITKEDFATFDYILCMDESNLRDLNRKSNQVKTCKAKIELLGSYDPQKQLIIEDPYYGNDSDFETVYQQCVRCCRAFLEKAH

Caspase-7 = Caspase-7 (Homo sapiens, UniProt P55210); assay: caspase-7 enzyme inhibition, selectivity check – biochemical, DEVD-R110 fluorescence, cherry-pick, selectivity assay for caspase-6 inhibitor project, dose response (AID 743295); assay type: functional
Sequence of Caspase-7 (P55210 24-198 limits assumed): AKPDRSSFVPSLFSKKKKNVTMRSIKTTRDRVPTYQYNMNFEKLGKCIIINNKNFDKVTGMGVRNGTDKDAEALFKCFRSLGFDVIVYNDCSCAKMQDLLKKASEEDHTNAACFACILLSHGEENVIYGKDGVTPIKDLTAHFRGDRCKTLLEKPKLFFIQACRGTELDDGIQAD
Sequence of Caspase-7 (P55210 207-303 limits assumed): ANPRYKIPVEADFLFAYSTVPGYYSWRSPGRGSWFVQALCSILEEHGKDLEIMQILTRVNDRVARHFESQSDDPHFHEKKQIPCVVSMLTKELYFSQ

[15] = viability loss in HEK293 cells – cell-based, plate reader, cherry-picked samples, cytotoxicity control, dose response (AID 743446); assay type: functional
[16] = toxicity toward HepG2 liver cells – cell-based, plate reader, cherry-pick, antagonist series, cytotoxicity control, dose response (AID 743416); assay type: functional
[17] = activation of miR-122 Renilla sensor silencing – cell-based, Huh7 psiCHECK-miR122, Renilla luciferase, cherry-picked, dose response (AID 651956); assay type: functional;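 also: huh7 hepatoma cells stably carrying a psiCHECK-2 miR-122 sensor plasmid; renilla luciferase signal reporting endogenous miR-122 activity after 48 h compound exposure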
[18] = general mammalian cell viability loss – inhibitor set, cherry-pick, set 2, cytotoxicity control for miR-122 modulator project, dose response (AID 720697); assay type: functional, cell-based
[19] = blockade of melanocortin 4 receptor signaling – cell-based, plate reader, cherry pick, counter-screen for LGR2 antagonist project, dose response (AID 743444); assay type: functional;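 also: transfected HEK 293 cells stimulated with alpha-MSH peptide; potency of inhibitors of the alpha-MSH evoked signal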
[20] = general mammalian cell viability loss – activator set, cherry-pick, cytotoxicity control for miR-122 modulator project, dose response (AID 720690); assay type: functional, cell-based;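 also: HEK293T human cells scored for general mammalian cytotoxicity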
[21] = A549 cell cytotoxicity, dose response, cytotoxicity control, plate reader, cherry-pick, antagonist series (AID 743412); assay type: functional, cell-based
[22] = blockers of bursicon-stimulated LGR2 cAMP reporter – cell-based, HEK293, CRE-luciferase reporter, cherry pick, set 2, dose response (AID 743343); assay type: functional;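 also: transfected cells were stimulated with diluted bursicon conditioned medium after compound addition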
[23] = target: Disintegrin and metalloproteinase domain-containing protein 17 (Homo sapiens, UniProt P78536); assay: inhibition of ADAM17 substrate cleavage – biochemical, quenched FRET substrate, counter-screen for ADAM10 exosite inhibitor project, dose response (AID 743253)
Sequence of Disintegrin and metalloproteinase domain-containing protein 17 (P78536 whole entry, the tested form may be a part): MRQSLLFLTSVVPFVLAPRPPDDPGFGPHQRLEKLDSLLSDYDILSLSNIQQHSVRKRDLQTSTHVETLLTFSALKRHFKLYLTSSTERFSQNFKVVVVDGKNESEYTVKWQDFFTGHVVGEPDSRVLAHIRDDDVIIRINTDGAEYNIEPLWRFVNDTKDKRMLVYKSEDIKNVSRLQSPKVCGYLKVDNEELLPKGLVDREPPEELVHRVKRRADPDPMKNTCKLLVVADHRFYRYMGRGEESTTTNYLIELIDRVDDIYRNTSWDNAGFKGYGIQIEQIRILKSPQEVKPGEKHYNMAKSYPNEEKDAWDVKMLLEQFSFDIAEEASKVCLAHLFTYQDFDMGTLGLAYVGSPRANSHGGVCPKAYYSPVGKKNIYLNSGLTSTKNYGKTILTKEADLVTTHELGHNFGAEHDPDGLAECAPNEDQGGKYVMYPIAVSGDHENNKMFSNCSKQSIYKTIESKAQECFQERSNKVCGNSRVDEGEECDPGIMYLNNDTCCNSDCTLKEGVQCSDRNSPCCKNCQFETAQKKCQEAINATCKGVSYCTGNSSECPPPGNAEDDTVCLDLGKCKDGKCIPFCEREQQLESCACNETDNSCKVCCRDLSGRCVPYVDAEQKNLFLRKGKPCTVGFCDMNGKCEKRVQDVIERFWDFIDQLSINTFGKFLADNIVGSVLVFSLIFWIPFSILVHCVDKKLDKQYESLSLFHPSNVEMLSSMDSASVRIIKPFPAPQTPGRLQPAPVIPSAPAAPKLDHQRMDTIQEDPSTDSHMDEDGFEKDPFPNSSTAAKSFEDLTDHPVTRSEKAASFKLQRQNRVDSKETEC

[24] = potency of ADAM10 substrate cleavage blockers – biochemical, QFRET, dose response (AID 743254);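 also: ADAM10 enzyme with the DM2 quenched FRET peptide as substrate; EDANS fluorescence gain as the protease cuts the substrate; inhibitor potency against ADAM10 proteolytic activity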
[25] = toxicity to human hepatoma HepG2 cells – cell-based, cherry-picked samples, cytotoxicity control, dose response (AID 1159577); assay type: functional

Sequence of Genome polyprotein (P29990 2492-3391 limits assumed): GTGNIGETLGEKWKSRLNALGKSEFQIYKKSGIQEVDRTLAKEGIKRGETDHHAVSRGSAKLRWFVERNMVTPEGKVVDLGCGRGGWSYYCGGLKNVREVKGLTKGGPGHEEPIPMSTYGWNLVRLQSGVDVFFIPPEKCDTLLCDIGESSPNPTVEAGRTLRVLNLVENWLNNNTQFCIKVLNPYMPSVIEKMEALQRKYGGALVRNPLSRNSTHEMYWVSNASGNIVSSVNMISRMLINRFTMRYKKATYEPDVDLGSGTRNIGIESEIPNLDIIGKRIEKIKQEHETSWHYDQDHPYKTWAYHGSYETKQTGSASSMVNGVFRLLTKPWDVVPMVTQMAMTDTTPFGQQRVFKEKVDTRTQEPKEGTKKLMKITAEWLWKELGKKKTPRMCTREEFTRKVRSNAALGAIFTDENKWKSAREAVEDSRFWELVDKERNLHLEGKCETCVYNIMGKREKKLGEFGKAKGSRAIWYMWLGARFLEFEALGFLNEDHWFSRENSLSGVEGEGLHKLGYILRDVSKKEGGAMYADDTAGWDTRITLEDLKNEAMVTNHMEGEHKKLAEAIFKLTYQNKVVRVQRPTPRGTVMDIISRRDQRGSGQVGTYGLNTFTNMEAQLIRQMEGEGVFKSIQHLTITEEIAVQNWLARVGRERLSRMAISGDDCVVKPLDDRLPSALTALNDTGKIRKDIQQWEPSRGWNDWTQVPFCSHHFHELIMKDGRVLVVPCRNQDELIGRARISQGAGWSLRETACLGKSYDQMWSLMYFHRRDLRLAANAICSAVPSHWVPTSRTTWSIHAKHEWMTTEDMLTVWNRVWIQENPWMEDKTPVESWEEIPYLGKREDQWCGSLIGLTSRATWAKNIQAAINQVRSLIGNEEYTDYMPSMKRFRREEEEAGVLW

For O=C1CC=C2C3CC4N(CCC45c4cc(O)c(O)cc4N1C25)CC3=CCBr (stereo unspecified), the IC50 (Genome polyprotein) was 31.5 µM (active) and the IC50 [1] was 3.05 µM (active).
With Cc1ccc(S(=O)(=O)N(C)C[C@@H]2OCc3ccccc3-c3c(n(C)c4ccccc34)C(=O)N([C@H](C)CO)C[C@@H]2C)cc1 the AC50 [2] was 29.6 µM (active), the AC50 [3] was 1.66 µM (active) and the EC50 (HEK293 [4]) was > 59.6 µM (inactive). For the same molecule, the AC50 [5] was 2 µM (active), the AC50 [6] was 52.3 µM (active) and the AC50 [7] was 1.87 µM (active). The AC50 [8] was 0.106 µM (active), the AC50 [9] was 0.0655 µM (active) and the AC50 [10] was 0.676 µM (active). The AC50 [11] was 2.16 µM (active), the EC50 (HEK293 [12]) was > 59.6 µM (inactive) and the AC50 [13] was 0.151 µM (active).
For CCOC(=O)c1sc2nc(OCCN3CCOCC3)cc(C)c2c1N, the AC50 (Caspase-6) was 2.18 µM (active), the IC50 [14] was 61.1 µM (inactive) and the AC50 (Caspase-7) was 45.2 µM (active).
With C[C@H]1CN([C@@H](C)CO)S(=O)(=O)c2ccc(C#CC(C)(C)O)cc2O[C@@H]1CN(C)Cc1ccc(-c2ccccc2)cc1 the AC50 [15] was 1.95 µM (active), the AC50 [16] was 0.759 µM (active) and the AC50 [17] was 7.8 µM (active). The AC50 [18] was 10.7 µM (active), the AC50 [19] was 20.2 µM (active) and the AC50 [20] was 12.3 µM (active). The AC50 [21] was 0.778 µM (active) and the AC50 [22] was 29.6 µM (active).
In the case of CCCCCCCCNS(=O)(=O)/C=C/c1ccccc1CNC(=O)OC(C)(C)C, the IC50 [23] is reported as > 69.6 µM (inactive) and the IC50 [24] is reported as > 7.73 µM (active).
In the case of C[C@H]1CN([C@@H](C)CO)C(=O)c2ccccc2-c2ccccc2CO[C@H]1CN(C)Cc1ccc(C(F)(F)F)cc1, the AC50 [25] is reported as > 42 µM (inactive) and the AC50 [10] is reported as 3.03 µM (active).
For CCC(=O)N1CC(=O)N2[C@@H](CO)[C@H](c3ccc(C#CCc4ccccc4)cc3)[C@@H]2C1, the AC50 [25] was 25.2 µM (active) and the AC50 [10] was 11.4 µM (active).
